Results taken from patent US20200289522A1 (Shionogi & Co., Ltd., priority 2019, published 2020).
Where two headings read alike, the source gives them in different places.

How the values were obtained:
[1] = system: type B influenza virus; assay type: in vivo, human; settings: for median time to improvement of influenza symptoms: BXM single dose 40/80 mg, oseltamivir 75 mg twice daily for 5 days
[2] = system: influenza virus; assay type: in vivo, human
[3] = Plasma concentration after oral administration of prodrug Compound II-6 to rats under non-fasting conditions; assay type: in vivo
Excerpt: FIGS. 1 and 2 show a result of measuring the plasma concentration of Compound III and
Compound II-6, respectively, after oral administration of prodrug Compound II-6 to rats under non-fasting conditions.

Molecule: CCOC(=O)C1=C[C@@H](OC(CC)CC)[C@H](NC(C)=O)[C@@H](N)C1 [oseltamivir, reference compound]
- median time to improvement of influenza symptoms ([1]; patients infected with type B influenza virus): 101.6 h

Molecule: Baloxavir marboxil [II-6]
- primary endpoint (time to improvement of influenza symptoms) compared with placebo ([2]; BXM 40 or 80 mg single oral dose): statistically significant improvement
- change from baseline in an influenza virus titer [log 10(TCID50/mL)] by time ([2]; by day 2, vs placebo and oseltamivir): statistically significantly superior to placebo and oseltamivir
- Difference between BXM and placebo in Time to Improvement of Influenza Symptoms ([2]; difference of medians, generalized Wilcoxon test p-value <0.0001): −29.1
- Time to Improvement of Influenza Symptoms ([2]; median, BXM 40/80 mg single oral dose by body weight, N = 385, ITTI population): 73.2
- incidence of influenza-related complication: bronchitis ([2]; vs placebo): statistically signicantly superior to placebo
- incidence of influenza-related complication: sinusitis ([2]; vs placebo): statistically signicantly superior to placebo
- time to cessation of viral shedding by a virus titer ([2]; vs placebo and oseltamivir): statistically significantly superior to placebo and oseltamivir
- incidence of influenza-related complications, any complications ([2]; vs placebo, Fisher's exact test): statistically significantly superior to placebo
- median time to improvement of influenza symptoms ([1]; […]): 74.6 h
- change from baseline in an influenza virus titer [log 10(TCID50/mL)] by time, type B virus ([1]; […], by day 2, vs placebo and oseltamivir): statistically significantly superior to placebo and oseltamivir
- median difference in time to improvement of influenza symptoms, BXM vs placebo ([1]; type B influenza virus, generalized Wilcoxon test p-value=0.0138): -26.0 h
- median difference in time to improvement of influenza symptoms, BXM vs oseltamivir ([1]; type B influenza virus, generalized Wilcoxon test p-value=0.0251): -27.1 h

Molecule: COC(=O)OCOc1c2n(ccc1=O)N([C@@H]1c3ccccc3SCc3c1ccc(F)c3F)[C@@H]1COCCN1C2=O [II-6, Baloxavir marboxil]
- concentration of Compound II-6 in plasma ([3]; non-fasting, oral II-6 0.3, 1, 3 and 10 mg/kg, all time points 0.25 h to 24 h, below limit of quantification): < 0.500 ng/mL
- conversion of prodrug to Compound III in vivo after administration ([3]; oral administration): metabolized promptly to Compound III
